Like-named read-outs stand apart in the source and are kept apart here.
System: Hi-Q organoids
Assay: Calcium imaging in sections of Hi-Q brain organoids (Oregon Green BAPTA 1)
Type: cell-based, human
Conditions: for calcium signals on addition of the substance: more evident in older than in younger organoids, FIG. 4C-D

Compound	response of organoids to added transmitter (calcium imaging) (Day 30 organoids, FIG. 4C)	response of organoids to added transmitter (calcium imaging) (Day 40 organoids, FIG. 4D)	calcium signals on addition of the substance	further results
NCCCC(=O)O [GABA]	respond	respond	spike in calcium signals	–
NiCl2	–	–	–	effect on the response to GABA (blocker added, calcium signal evoked by GABA): blocked
NS(=O)(=O)c1cccc2c1c([N+](=O)[O-])cc1nc(O)c(O)nc12 [NBQX]	–	–	–	effect on calcium signals evoked by GABA or glutamate (involvement of AMPA receptors) (blocker added): blocked
NC1=N[C@H](O)[C@H]2[C@H]3O[C@]4(O)O[C@@H]([C@@H](O)[C@@]2(N1)[C@@H]4O)[C@]3(O)CO [TTX, tetrodotoxin]	–	–	–	effect on the response to GABA: not altered; inhibition of sodium channels in the brain organoids, analyzed by calcium imaging: inhibits sodium channels
glutamate	no response	respond	spike in calcium signals	–
